Structures are written as SMILES. A value given as a limit tells only on which side of the number the result lay.

One test has as its system NOX. Put plainly: H2DCF-DA fluorescence in TGF-β stimulated HUVEC. It counts as cell-based, human. The conditions noted are these: usually. The procedure: HUVEC are cultured in endothelial basal medium supplemented with hydrocortisone (1 μg/mL, Calbiochem), bovine brain extract (12 μg/mL), gentamicin (50 μg/mL, Calbiochem), amphotericin B (50 ng/mL, Calbiochem EGF (10 ng/mL, and 10% FCS until the fourth passage. When the fifth passage was started, cells were cultured with a lower concentration of FCS (2%) in the absence of EGF, if not indicated otherwise. All experiments were done with cells of the fifth passage. The cells were incubated with OxLDL (oxidized low-density lipoprotein) or its buffer as control for 24 h, before detection of O2^− formation.
HUVEC were plated on coverslips and made quiescent overnight in 0.5% BSA before stimulation with TGF-β. Cells were loaded for 10 minutes with 5 μM CM-H2DCF-DA in phenol-red-free medium in the dark and then treated with TGF-β (R&D Systems) in the presence or absence of compounds according to the invention. Cells were then visualized by immunofluorescence microscopy after fixation and staining of the nuclei with DAPI or examined live using confocal microscopy. DCF fluorescence was visualized at an excitation wavelength of 488 nm and emission at 515 to 540 nm. […] For calculation, the absorbance at […] was normalized to absorbance at […] for each individual well. […] NOX activities were expressed as % of the activity in control cells. […]
With `c1ccc([I+]c2ccccc2)cc1` [DPI, Diphenyl-iodonium], the “Residual activity of DPI-treated cells (NOX activity as % of control cells)” value is reported as < 10%.

For another test, the target named is T1, NOX (Homo sapiens, UniProt P04839).
T1 construct: HL60 differentiation to the neutrophil phenotype was triggered by adding Me2SO; endogenous in cells; host or cells: HL-60 cells differentiated with Me2SO (1.25% v/v, 6 days) to the neutrophil phenotype
T1 sequence (P04839 2-570 limits assumed): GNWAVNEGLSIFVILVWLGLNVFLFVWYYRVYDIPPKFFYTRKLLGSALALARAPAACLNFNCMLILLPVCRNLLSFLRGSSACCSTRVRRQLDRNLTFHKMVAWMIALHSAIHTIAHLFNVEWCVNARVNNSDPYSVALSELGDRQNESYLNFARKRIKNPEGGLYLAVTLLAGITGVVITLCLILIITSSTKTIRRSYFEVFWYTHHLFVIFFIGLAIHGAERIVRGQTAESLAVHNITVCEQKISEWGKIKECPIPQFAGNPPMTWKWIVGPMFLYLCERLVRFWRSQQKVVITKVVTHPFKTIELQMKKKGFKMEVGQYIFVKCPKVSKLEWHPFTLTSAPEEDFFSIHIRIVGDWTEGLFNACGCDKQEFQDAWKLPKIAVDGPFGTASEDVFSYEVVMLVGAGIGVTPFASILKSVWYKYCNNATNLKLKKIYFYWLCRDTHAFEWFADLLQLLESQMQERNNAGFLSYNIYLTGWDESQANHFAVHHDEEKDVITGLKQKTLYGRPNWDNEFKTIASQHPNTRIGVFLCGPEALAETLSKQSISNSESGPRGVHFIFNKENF
T1 sequence (P13498 1-195 partner): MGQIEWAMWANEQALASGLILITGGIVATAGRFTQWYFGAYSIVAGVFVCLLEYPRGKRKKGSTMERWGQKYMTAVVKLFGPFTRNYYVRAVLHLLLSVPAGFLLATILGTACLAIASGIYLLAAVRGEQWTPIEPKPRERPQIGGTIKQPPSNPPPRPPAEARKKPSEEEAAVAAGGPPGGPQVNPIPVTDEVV
As to the kind of experiment: Amplex Red measurement of extracellular hydrogen peroxide (NOX activity) in DMSO-differentiated HL60 cells.
Details: not given
It counts as cell-based. On the procedure: Human acute myeloid leukemia cell line HL-60 was cultured in RPMI 1640 (Invitrogen) supplemented with 10% heat-inactivated calf serum, 2 mM glutamine, 100 U/mL penicillin (Sigma), and 100 μg streptomycin (Sigma) at 37° C. under a humidified atmosphere of 5% CO2. HL60 differentiation to the neutrophil phenotype was triggered by adding Me2SO (final concentration 1.25% v/v for 6 days) to the culture medium.
Extracellular hydrogen peroxide was measured using Amplex UltraRed (Molecular Probes). Cells were trypsinized (1× Trypsin-EDTA), collected by centrifugation, and resuspended in HBSS supplemented with 1% glucose. Cells were seeded into black 96-well plates at a density of 50′000 cells in 200 μl testing buffer (HBSS 1% glucose containing 0.005 U/mL horseradish peroxidase (Roche) and 50 μM Amplex Red in the presence or absence of compounds according to the invention. As a control, DPI was included at a final concentration of 10 μM The plates were placed in the fluorescent Optima Fluorescent plate reader and kept at 37° C. during 20 min. Fluorescence was measured for […] with excitation and emission wavelengths of 544 nm and 590 nm respectively. NOX activities were expressed as % of the activity in control cells. Residual activity of DPI-treated cells was usually <10%. […]
The Table 3 below summarizes the IC50 of NOX activity as measured by Amplex Red using DMSO-differentiated HL60 cells as described above: […]
Regarding `O=c1c2c([nH]n1Cc1ccc(Cl)cc1)CCN(Cc1ccccc1)C2` [Compound 1, 5-benzyl-2-(4-chlorobenzyl)-1,2,4,5,6,7-hexahydro-3H-pyrazolo[4,3-c]pyridin-3-one], the half-maximal inhibitory concentration (IC50) (as a rule, the concentration needed to halve the response being measured) was < 5 µM.
For the molecule `O=c1c2c([nH]n1-c1ccc(F)cc1Cl)CCN(Cc1ccccc1)C2` [Compound 2, 5-benzyl-2-(2-chloro-4-fluorophenyl)-1,2,4,5,6,7-hexahydro-3H-pyrazolo[4,3-c]pyridin-3-one], the concentration for half-maximal inhibition (IC50) was < 5 µM.
For `O=c1c2c([nH]n1-c1cccc(OCc3ccccc3)c1)CCN(Cc1ccccc1)C2` [Compound 3, 5-benzyl-2-[3-(benzyloxy)phenyl]-1,2,4,5,6,7-hexahydro-3H-pyrazolo[4,3-c]pyridin-3-one], the half-maximal inhibitory concentration (IC50) was < 5 µM.
`O=c1c2c([nH]n1-c1ccc(F)cc1Cl)CCNC2` [Compound 4, 2-(2-chloro-4-fluorophenyl)-1,2,4,5,6,7-hexahydro-3H-pyrazolo[4,3-c]pyridin-3-one]: the IC50 is < 5 µM.
`Cn1[nH]c2c(c1=O)CN(Cc1ccccc1)CC2` [Compound 8, 5-benzyl-2-methyl-1,2,4,5,6,7-hexahydro-3H-pyrazolo[4,3-c]pyridin-3-one]: the half-maximal inhibitory concentration (IC50) is < 5 µM.
Same read-out and setting: under `O=c1c2c([nH]n1Cc1ccccc1)CCN(Cc1ccc(Cl)cc1)C2` [Compound 9, 2-benzyl-5-(4-chlorobenzyl)-1,2,4,5,6,7-hexahydro-3H-pyrazolo[4,3-c]pyridin-3-one] stands < 5 µM.
Same read-out and setting: to `O=c1c2c([nH]n1Cc1ccccc1)CCN(Cc1ccccc1)C2` [Compound 12, 2,5-dibenzyl-1,2,4,5,6,7-hexahydro-3H-pyrazolo[4,3-c]pyridin-3-one] belongs < 5 µM; to `COc1cccc(-n2[nH]c3c(c2=O)CN(Cc2ccccc2)CC3)c1` [Compound 24, 5-benzyl-2-(3-methoxyphenyl)-1,2,4,5,6,7-hexahydro-3H-pyrazolo[4,3-c]pyridin-3-one], < 5 µM; to `CN1N=C2CCN(Cc3ccc(Cl)cc3)CC2(Cc2cccnc2)C1=O` (stereo not shown) [Compound 87, 5-(4-chlorobenzyl)-2-methyl-3a-(pyridin-3-ylmethyl)-2,3a,4,5,6,7-hexahydro-3H-pyrazolo[4,3-c]pyridin-3-one], < 5 µM.
In the case of `CN1CCC(n2[nH]c3c(c2=O)CN(Cc2ccc(Cl)nc2)CC3)CC1` [Compound 96, 5-[(6-chloropyridin-3-yl)methyl]-2-(1-methylpiperidin-4-yl)-1,2,4,5,6,7-hexahydro-3H-pyrazolo[4,3-c]pyridin-3-one], the IC50 was < 5 µM.
For the molecule `O=c1c2c([nH]n1Cc1ccccc1)CCN(Cc1ccc(Cl)nc1)C2` [Compound 97, 2-benzyl-5-[(6-chloropyridin-3-yl)methyl]-1,2,4,5,6,7-hexahydro-3H-pyrazolo[4,3-c]pyridin-3-one], the IC50 is < 5 µM.
Same read-out and setting: to `CS(=O)(=O)N1CCc2[nH]n(Cc3ccccc3)c(=O)c2C1` [Compound 102, 2-benzyl-5-(methylsulfonyl)-1,2,4,5,6,7-hexahydro-3H-pyrazolo[4,3-c]pyridin-3-one] belongs < 5 µM; to `Cc1ccc(S(=O)(=O)N2CCc3[nH]n(Cc4cn5ccccc5n4)c(=O)c3C2)cc1` [Compound 103, 2-(imidazo[1,2-a]pyridin-2-ylmethyl)-5-[(4-methylphenyl)sulfonyl]-1,2,4,5,6,7-hexahydro-3H-pyrazolo[4,3-c]pyridin-3-one], < 5 µM.

The next test relates to NOX. As to the kind of experiment: Nitroblue tetrazolium (NBT) superoxide test in cells. Conditions: DPI 10 μM, usually. The class given is cell-based, human. The procedure:
Human microglia cell line (HMC3, human microglia clone 3) (Janabi et al., 1995, Neurosci. Lett. 195:105) were cultured in MEM (Eagle's minimum essential medium) containing 10% FBS with 50 U/ml penicillin G sodium 50 μg/ml streptomycin sulfate, and incubated at 37° C. for 24 hours. IFN-γ (human IFN-γ, Roche. 11 040 596 001) was added to the culture medium for a final concentration of 10 ng/ml 24 h, before detection of O2^− formation. […]
Intracellular and extracellular superoxide was measured by a colorimetric technique using a quantitative nitroblue tetrazolium (NBT) test. SOD-inhibitable conversion of NBT to formazan, a fine blue precipitate, in the presence of superoxide anion was measured using Fluostar Optima spectrometer (BMG labtech). […] The absorption was measured at 630 nm. For calculation, the absorbance at 630 nm was normalized for each individual well. […] NOX activities were expressed as % of the activity in control cells. […]
Take `c1ccc([I+]c2ccccc2)cc1` [DPI, Diphenyl-iodonium]: the “Residual activity of DPI-treated cells (NOX activity as % of control cells)” value was < 10%.

Another test relates to NOX. As to the kind of experiment: Chemiluminescence (luminol) ROS measurement in cells. It counts as cell-based, human. Conditions: usually. On the procedure: ROS was measured using the chemiluminescent probe luminol. Cells were cultured and plated as for Amplex Red except that the Amplex Red agent was replaced by 10 μg/mL luminol (Sigma 09235). Light emission was recorded continuously at 37° C. for 60 minutes using the luminescence function of the FluoStar Optima fluorescent plate reader. The mean of the four blank values was subtracted from each corrected value for each time point. NOX activities were expressed as % of the activity in control cells. Residual activity of DPI-treated cells was usually <10%.
Take `c1ccc([I+]c2ccccc2)cc1` [DPI, Diphenyl-iodonium]: the “Residual activity of DPI-treated cells (NOX activity as % of control cells)” value is < 10%.

Source of the values: US8865758B2, “Pyrazolo piperidine derivatives as NADPH oxidase inhibitors” (Genkyotex SA, priority 2010, dated 2014).
